According to ChEMBL document CHEMBL1141170, “Rational approach to discover multipotent anti-Alzheimer drugs” (J Med Chem, 2005):

Key:
[1] = species on record: Homo sapiens; test: Percentage increase of intracellular reactive oxygen species in neuronal cells at 0 uM; format: functional
[2] = species on record: Homo sapiens; test: Percentage increase of intracellular reactive oxygen species in neuronal cells at 1 uM; format: functional
[3] = species on record: Homo sapiens; test: Percentage increase of intracellular reactive oxygen species in neuronal cells at 5 uM; format: functional
[4] = species on record: Homo sapiens; test: Percentage increase of intracellular reactive oxygen species in neuronal cells at 0.5 uM; format: functional
[5] = species on record: Homo sapiens; test: Percentage increase of intracellular reactive oxygen species in neuronal cells at 10 uM; format: functional
[6] = species on record: Homo sapiens; test: Percentage increase of intracellular reactive oxygen species in neuronal cells at 50 uM; format: functional
[7] = species on record: Homo sapiens; test: Percentage increase of intracellular reactive oxygen species in neuronal cells at 0.1 uM; format: functional
[8] = biological target: Acetylcholinesterase (Homo sapiens, UniProt P22303)
Chain of Acetylcholinesterase (P22303 whole entry): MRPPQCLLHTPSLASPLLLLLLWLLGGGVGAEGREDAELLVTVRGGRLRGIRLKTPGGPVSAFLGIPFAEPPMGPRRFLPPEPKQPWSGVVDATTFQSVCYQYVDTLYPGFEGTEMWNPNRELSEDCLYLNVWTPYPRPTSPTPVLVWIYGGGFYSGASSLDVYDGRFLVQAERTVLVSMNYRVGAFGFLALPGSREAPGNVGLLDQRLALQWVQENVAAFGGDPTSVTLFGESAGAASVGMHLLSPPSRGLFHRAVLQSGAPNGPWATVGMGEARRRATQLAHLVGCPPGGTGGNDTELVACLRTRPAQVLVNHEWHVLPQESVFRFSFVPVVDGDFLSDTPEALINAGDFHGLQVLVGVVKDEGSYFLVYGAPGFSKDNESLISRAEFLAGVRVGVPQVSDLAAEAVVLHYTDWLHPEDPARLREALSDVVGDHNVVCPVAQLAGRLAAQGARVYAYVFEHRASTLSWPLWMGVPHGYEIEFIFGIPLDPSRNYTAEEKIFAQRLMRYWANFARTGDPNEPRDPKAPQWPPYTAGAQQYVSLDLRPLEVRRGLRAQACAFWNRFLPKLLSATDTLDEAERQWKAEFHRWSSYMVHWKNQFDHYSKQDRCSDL
Description: Inhibitory concentration against human recombinant acetylcholinesterase

[9] = biological target: Cholinesterase (Homo sapiens, UniProt P06276)
Chain of Cholinesterase (P06276 whole entry): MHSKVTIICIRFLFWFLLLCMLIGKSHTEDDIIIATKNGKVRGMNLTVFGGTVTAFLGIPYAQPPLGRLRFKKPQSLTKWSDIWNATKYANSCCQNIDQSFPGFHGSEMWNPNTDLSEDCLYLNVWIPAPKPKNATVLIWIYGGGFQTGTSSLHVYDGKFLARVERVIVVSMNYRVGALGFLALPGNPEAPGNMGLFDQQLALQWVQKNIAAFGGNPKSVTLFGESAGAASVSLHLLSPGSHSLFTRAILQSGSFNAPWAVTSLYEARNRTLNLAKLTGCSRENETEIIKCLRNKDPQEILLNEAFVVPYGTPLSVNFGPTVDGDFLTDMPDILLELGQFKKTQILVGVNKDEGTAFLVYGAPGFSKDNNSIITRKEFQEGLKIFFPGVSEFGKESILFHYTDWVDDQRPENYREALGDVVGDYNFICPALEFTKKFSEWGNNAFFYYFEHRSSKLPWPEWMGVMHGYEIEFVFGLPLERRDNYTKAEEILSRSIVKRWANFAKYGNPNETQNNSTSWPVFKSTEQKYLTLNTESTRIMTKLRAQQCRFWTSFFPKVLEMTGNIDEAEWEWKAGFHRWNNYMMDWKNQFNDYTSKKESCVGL
Description: Inhibitory concentration against human recombinant butyrylcholinesterase

[10] = species on record: Homo sapiens; test: Percentage increase of intracellular reactive oxygen species in neuronal cells at 10 uM; Cytotoxicity; format: functional
[11] = species on record: Homo sapiens; test: Percentage increase of intracellular reactive oxygen species in neuronal cells at 50 uM; Cytotoxicity; format: functional

Row | SMILES | Activity [1] [%] | Activity [2] [%] | Activity [3] [%] | Activity [4] [%] | Activity [5] [%] | Activity [6] [%] | Activity [7] [%] | IC50 [8] [nM] | IC50 [9] [nM] | Activity [10] | Activity [11]
1 | O=C(CCCCC1CCSS1)NCCCNc1c2c(nc3cc(Cl)ccc13)CCCC2 (racemic) [LIPOCRINE] | 86 | 77 | 61.67 | 95 | 51.25 | 30.5 | 88.75 |  |  |  | 
2 | Nc1c2c(nc3cc(Cl)ccc13)CC(CNC(=O)CCCCC1CCSS1)CC2 (configuration not stated) |  |  |  |  |  |  |  | 1090 | 329 |  | 
3 | NCCCNc1c2c(nc3cc(Cl)ccc13)CCCC2 | 86 | 96.67 | 82.5 | 99.67 |  |  | 99.5 |  | 2580 | Toxic | Toxic
